The values that follow are results of earlier work, collected in patent publication US20220370378A1 (SOCIETE DES PRODUITS NESTLE S.A., priority 2019, published 2022).

Structures are written as SMILES.

In series [1] the test system is GLUT4 translocation in skeletal muscle cells. As to conditions: single-dose administration, compared among three inositol isomers.
For series [2] the following is noted: humans.

`O[C@H]1[C@H](O)[C@@H](O)[C@H](O)[C@@H](O)[C@@H]1O` [scyllo-inositol, (1r,2r,3r,4r,5r,6r)-Cyclohexane-1,2,3,4,5,6-hexol]: the GLUT4 translocation result in series [1] was “most efficiently among three inositol isomers”. Moreover, the “mean time to reach the maximum level after ingestion” value in series [2] is “about 3.8 h”.
